“Also recorded” adds a separate entry of the source.
Assays:
A2780CP20 = assay: 2D monolayer viability assay (CellTiter Blue); assay type: cell-based; conditions: Homo sapiens; 48 h, Mean ± SD, N=3
A2780 = assay: 2D monolayer viability assay (CellTiter Blue); assay type: cell-based; conditions: Homo sapiens, A2780; 48 h, Mean ± SD, N=3; read-out: Monolayer (IC50 µM) A2780
HEYA8-MDR = assay: 2D monolayer viability assay (CellTiter Blue); assay type: cell-based; conditions: Homo sapiens, 48 h, Mean ± SD, N=3
HEYA8 = assay: 2D monolayer viability assay (CellTiter Blue); assay type: cell-based; conditions: Homo sapiens, HEY A8; 48 h, Mean ± SD, N=3
IMR90 fibroblasts = assay: 2D monolayer viability assay (CellTiter Blue); assay type: cell-based; conditions: Homo sapiens, IMR-90; 48 h, N=3
OVCAR4 = assay: 2D monolayer viability assay (CellTiter Blue); assay type: cell-based; conditions: Homo sapiens, OVCAR-4; 48 h, Mean ± SD, N=3
SKOV3IP1 = assay: 2D monolayer viability assay (CellTiter Blue); assay type: cell-based; conditions: Homo sapiens; 48 h, Mean ± SD, N=3
SKOV3TRIP2 = assay: 2D monolayer viability assay (CellTiter Blue); assay type: cell-based; conditions: Homo sapiens; 48 h, Mean ± SD, N=3
SKOV3 = assay: 2D monolayer viability assay (CellTiter Blue); assay type: cell-based; conditions: Homo sapiens, SK-OV-3; 48 h, Mean ± SD, N=3
OvCa cell lines = assay: 2D monolayer viability assay, across the panel; assay type: cell-based, human; conditions: Homo sapiens, 48 h, read-out: no significant growth inhibition of any of the OvCa cell lines at concentrations as high as
HeyA8 spheroids = assay: Spheroid viability and growth assay; assay type: cell-based, human
A2780 spheroids = assay: Spheroid viability assay (CellTiterGlo 3D); assay type: cell-based; conditions: Homo sapiens, 48 h, Mean ± SD, N=3
A2780CP20 spheroids = assay: Spheroid viability assay (CellTiterGlo 3D); assay type: cell-based; conditions: Homo sapiens; 48 h, Mean ± SD, N=3
COV362 spheroids = assay: Spheroid viability assay (CellTiterGlo 3D); assay type: cell-based; conditions: Homo sapiens, 48 h, Mean ± SD, N=3
HeyA8-MDR spheroids = assay: Spheroid viability assay (CellTiterGlo 3D); assay type: cell-based; conditions: Homo sapiens, 48 h, Mean ± SD, N=3
OVCAR4 spheroids = assay: Spheroid viability assay (CellTiterGlo 3D); assay type: cell-based; conditions: Homo sapiens, OVCAR-4; 48 h, Mean ± SD, N=3
SKOV3 spheroids = assay: Spheroid viability assay (CellTiterGlo 3D); assay type: cell-based; conditions: Homo sapiens, SK-OV-3; 48 h, Mean ± SD, N=3
SKOV3IP1 spheroids = assay: Spheroid viability assay (CellTiterGlo 3D); assay type: cell-based; conditions: Homo sapiens; 48 h, Mean ± SD, N=3
SKOV3TRIP2 spheroids = assay: Spheroid viability assay (CellTiterGlo 3D); assay type: cell-based; conditions: Homo sapiens; 48 h, Mean ± SD, N=3
[1] = test system: normal human ovarian HI0-180 epithelial cells; assay: Spheroid viability assay (CellTiterGlo 3D); assay type: cell-based; conditions: Epithelial cell, 48 h
OvCa cell line spheroids = assay: Spheroid viability assay, across the panel; assay type: cell-based; conditions: Homo sapiens; 48 h exposure; read-out: no effects on spheroids in any cell lines at concentrations up to
HeyA8 cells = assay: Scratch wound migration assay; assay type: cell-based, human; conditions: measured 14 h after scratch
[2] = test system: RhoA activation in HeyA8 cells; assay: RhoA G-LISA activation assay; assay type: cell-based, human; conditions: HeyA8, 1 µM
PTP4A3 protein [3] = target: T1, PTP4A3 protein (Homo sapiens, UniProt O75365); assay: Thermal shift assay with SYPRO orange; assay type: binding; set-up: made in house; conditions: 100 µM compound, 16 μM protein
T1 sequence (O75365 whole entry): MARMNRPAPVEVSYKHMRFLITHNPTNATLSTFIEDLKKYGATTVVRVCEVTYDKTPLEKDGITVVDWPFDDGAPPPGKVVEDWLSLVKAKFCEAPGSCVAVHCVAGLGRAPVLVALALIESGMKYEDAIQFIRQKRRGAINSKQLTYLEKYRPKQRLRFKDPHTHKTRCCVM

PTP4A3 protein [4] = target: T1, PTP4A3 protein; assay: PTP4A3 phosphatase activity assay with DiFMUP substrate; assay type: biochemical; set-up: using a full-length recombinant human PTP4A3 and DiFMUP as the substrate; His6; made in house; conditions: full-length recombinant human PTP4A3, DiFMUP substrate; read-out: PTP4A3 inhibition, inactive at concentrations as high as
PTP4A1 = PTP4A1 (Homo sapiens, UniProt Q93096); assay: PTP4A1 phosphatase activity assay with DiFMUP; assay type: biochemical; conditions: DiFMUP substrate
PTP4A1, sequence (Q93096 whole entry): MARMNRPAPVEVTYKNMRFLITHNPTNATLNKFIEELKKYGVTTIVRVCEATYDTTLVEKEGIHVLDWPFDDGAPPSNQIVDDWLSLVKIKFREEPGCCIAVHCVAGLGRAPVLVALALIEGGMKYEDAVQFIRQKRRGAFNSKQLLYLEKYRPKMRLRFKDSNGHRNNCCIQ

PTPN7 (HePTP) = PTPN7 (HePTP) (Homo sapiens, UniProt P35236); assay: Phosphatase specificity profiling (PhosphataseProfiler); assay type: biochemical; conditions: 10 µM DiFMUP, commercial vendor, N=2, read-out: % Activity (Mean ± SD) PTPN7 (HePTP)
PTPN7 (HePTP), sequence (P35236 whole entry): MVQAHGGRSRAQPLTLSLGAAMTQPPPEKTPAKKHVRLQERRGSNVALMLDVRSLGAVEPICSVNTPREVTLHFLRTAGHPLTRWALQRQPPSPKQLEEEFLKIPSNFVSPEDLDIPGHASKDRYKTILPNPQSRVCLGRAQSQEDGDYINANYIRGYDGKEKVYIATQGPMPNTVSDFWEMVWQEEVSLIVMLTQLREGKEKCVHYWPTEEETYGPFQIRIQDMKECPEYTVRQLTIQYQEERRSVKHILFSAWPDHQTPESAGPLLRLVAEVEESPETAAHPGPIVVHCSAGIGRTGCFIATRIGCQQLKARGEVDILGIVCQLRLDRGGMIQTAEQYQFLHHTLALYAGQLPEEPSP

LMPTP-B = LMPTP-B (Homo sapiens, UniProt P24666); assay: as above; assay type: biochemical; conditions: 10 µM DiFMUP, commercial vendor, N=2, read-out: % Activity (Mean ± SD) LMPTP-B
LMPTP-B, sequence (P24666 1-158 isoform P24666-2): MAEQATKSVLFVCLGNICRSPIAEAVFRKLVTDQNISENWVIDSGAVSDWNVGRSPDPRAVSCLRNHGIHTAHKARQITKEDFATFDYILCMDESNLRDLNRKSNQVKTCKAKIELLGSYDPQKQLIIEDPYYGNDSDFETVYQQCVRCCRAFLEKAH

PTPRB (PTPβ) = PTPRB (PTPβ) (Homo sapiens, UniProt P23467); assay: as above; assay type: biochemical; conditions: 10 µM DiFMUP, commercial vendor, N=2, read-out: % Activity (Mean ± SD) PTPRB (PTPβ)
PTPRB (PTPβ), sequence (P23467 23-1997): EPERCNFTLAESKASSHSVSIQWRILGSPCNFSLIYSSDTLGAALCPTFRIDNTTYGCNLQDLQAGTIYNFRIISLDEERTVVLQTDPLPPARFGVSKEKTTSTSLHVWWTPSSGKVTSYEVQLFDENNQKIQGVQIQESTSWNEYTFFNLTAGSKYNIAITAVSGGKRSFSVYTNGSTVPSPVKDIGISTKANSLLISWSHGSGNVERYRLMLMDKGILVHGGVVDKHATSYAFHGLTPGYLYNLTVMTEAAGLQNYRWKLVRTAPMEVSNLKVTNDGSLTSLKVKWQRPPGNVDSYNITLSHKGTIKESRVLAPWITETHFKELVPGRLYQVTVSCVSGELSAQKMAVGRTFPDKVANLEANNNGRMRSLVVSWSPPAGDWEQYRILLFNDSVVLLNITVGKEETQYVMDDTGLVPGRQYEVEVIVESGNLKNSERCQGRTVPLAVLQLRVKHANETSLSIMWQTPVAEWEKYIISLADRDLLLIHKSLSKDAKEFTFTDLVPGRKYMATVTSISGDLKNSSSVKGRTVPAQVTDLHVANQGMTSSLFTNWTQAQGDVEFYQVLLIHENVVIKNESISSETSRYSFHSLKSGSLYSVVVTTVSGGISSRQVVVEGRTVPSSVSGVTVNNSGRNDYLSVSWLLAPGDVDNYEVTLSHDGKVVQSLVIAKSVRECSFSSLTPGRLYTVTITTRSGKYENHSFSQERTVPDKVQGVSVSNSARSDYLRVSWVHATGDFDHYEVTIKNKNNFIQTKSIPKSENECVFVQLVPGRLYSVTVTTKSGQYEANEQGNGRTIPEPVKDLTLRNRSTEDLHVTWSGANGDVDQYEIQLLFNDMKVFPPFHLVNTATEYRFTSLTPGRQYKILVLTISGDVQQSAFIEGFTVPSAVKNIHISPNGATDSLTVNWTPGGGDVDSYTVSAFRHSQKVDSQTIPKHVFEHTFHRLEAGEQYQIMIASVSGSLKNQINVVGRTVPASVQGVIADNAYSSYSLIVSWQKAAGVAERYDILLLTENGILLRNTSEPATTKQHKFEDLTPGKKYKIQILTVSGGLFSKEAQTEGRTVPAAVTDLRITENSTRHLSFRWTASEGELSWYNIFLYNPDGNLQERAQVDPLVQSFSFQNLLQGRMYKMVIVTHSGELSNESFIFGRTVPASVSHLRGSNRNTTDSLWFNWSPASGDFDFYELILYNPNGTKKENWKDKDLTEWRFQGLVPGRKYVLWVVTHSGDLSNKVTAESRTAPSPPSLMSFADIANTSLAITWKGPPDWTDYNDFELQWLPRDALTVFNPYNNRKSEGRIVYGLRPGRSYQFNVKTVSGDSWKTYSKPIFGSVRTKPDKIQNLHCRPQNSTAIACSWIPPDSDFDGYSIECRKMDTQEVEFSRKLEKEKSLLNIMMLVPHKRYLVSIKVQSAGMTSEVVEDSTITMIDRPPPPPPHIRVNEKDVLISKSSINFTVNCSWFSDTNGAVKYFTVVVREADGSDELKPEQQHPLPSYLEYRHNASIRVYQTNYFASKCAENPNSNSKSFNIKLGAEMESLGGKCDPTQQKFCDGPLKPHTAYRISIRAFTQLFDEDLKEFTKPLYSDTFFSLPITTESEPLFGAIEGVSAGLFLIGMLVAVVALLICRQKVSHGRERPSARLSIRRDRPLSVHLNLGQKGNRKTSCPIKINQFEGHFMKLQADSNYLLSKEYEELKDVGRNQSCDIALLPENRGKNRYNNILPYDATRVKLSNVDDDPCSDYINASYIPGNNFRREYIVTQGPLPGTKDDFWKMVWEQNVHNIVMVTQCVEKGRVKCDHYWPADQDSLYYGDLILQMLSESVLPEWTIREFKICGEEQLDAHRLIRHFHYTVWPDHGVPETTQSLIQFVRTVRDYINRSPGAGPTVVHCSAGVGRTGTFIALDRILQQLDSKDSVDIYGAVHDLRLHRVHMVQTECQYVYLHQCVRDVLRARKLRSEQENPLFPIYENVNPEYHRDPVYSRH

DUSP13 (TMDP) = DUSP13 (TMDP) (Homo sapiens, UniProt Q9UII6); assay: as above; assay type: biochemical; conditions: 10 µM DiFMUP, commercial vendor, N=2, read-out: % Activity (Mean ± SD) DUSP13 (TMDP)
DUSP13 (TMDP), sequence (Q9UII6 whole entry): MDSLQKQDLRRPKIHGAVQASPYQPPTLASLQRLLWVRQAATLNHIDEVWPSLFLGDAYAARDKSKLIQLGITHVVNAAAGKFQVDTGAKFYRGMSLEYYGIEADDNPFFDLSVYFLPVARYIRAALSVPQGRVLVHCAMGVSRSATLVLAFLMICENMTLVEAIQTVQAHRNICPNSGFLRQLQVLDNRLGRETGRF

Lambda PP (Phage) = target: T2, Lambda PP (Phage) (Escherichia phage lambda, UniProt P03772); assay: as above; assay type: biochemical; conditions: 10 µM DiFMUP, commercial vendor, N=2, read-out: % Activity (Mean ± SD) Lambda PP (Phage)
T2 construct: purchased Eurofins (Dundee, Scotland, UK), PhosphataseProfiler
T2 sequence (P03772 whole entry): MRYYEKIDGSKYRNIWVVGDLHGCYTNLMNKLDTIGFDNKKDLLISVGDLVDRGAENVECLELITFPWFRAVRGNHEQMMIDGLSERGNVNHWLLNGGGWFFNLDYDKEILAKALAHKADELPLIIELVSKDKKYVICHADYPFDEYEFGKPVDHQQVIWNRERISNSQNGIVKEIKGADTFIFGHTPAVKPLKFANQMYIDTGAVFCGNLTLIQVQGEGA

p38α = target: T3, p38α (Homo sapiens, UniProt Q16539); assay: Kinase profiling (KinaseSeeker); assay type: biochemical; conditions: 1 µM screening concentration
T3 construct: purchased Luceome Biotechnologies (Tucson, AZ), KinaseSeeker
T3 sequence (Q16539 whole entry): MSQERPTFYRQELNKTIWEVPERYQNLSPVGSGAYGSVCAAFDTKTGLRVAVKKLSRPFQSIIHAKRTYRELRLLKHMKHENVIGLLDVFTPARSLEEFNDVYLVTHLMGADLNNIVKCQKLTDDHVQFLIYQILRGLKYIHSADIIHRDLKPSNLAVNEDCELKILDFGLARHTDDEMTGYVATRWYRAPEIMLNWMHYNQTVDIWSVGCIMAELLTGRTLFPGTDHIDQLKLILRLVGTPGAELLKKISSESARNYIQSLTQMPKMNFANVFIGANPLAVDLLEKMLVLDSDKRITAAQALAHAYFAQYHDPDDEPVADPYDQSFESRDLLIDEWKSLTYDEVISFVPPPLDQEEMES

[5] = test system: primary human lung microvascular endothelial cells (MVEC); assay: Endothelial barrier function (TEER, ECIS) after VEGF challenge; assay type: cell-based; conditions: 5 µM
[6] = test system: primary human lung microvascular endothelial cells (MVEC); assay: Endothelial barrier function (TEER, ECIS) after LPS challenge; assay type: cell-based
[7] = test system: RhoA activation in human MVEC; assay: RhoA activation pull-down assay in MVEC after LPS; assay type: cell-based; conditions: 5 µM pretreatment 24 h, LPS 0.5 EU/mL 1 h
[8] = test system: Rac1 activation in human MVEC; assay: Rac1 activation assay in MVEC after LPS; assay type: cell-based; conditions: 5 µM pretreatment 24 h, LPS 0.5 EU/mL 1 h

With O=c1[nH]c(=O)c2cc(-c3ccccc3)sc2[nH]1 [JMS-038] the IC50 (A2780CP20) was over 50 µM, the IC50 (A2780) was over 50 µM and the IC50 (HEYA8-MDR) was over 50 µM. For the same compound, the IC50 (HEYA8) was over 50 µM, the IC50 (IMR90 fibroblasts) was over 50 µM and the IC50 (OVCAR4) was over 50 µM. For the same compound, the IC50 (SKOV3IP1) was over 50 µM, the IC50 (SKOV3TRIP2) was over 50 µM and the IC50 (SKOV3) was over 50 µM. The IC50 (OvCa cell lines) was over 50 µM, the IC50 (HeyA8 spheroids; Homo sapiens, HEY A8, 48 h, Mean ± SD, N=3) was over 50 µM and the “HeyA8 cell spheroid growth (images)” value (HeyA8 spheroids; images 48 h after plating and 24 h after compound addition) was “but not JMS-038 inhibited HeyA8 cell spheroid growth”. For the same compound, the IC50 (A2780 spheroids) was over 50 µM, the IC50 (A2780CP20 spheroids) was over 50 µM and the IC50 (COV362 spheroids) was over 50 µM. The IC50 (HeyA8-MDR spheroids) was over 50 µM, the IC50 (OVCAR4 spheroids) was over 50 µM and the IC50 (SKOV3 spheroids) was over 50 µM. The IC50 (SKOV3IP1 spheroids) was over 50 µM, the IC50 (SKOV3TRIP2 spheroids) was over 50 µM and the IC50 [1] was over 25 µM. For the same compound, the IC50 (OvCa cell line spheroids) was over 50 µM, the “migration of HeyA8 cells after wounding” value (HeyA8 cells) was “but not JMS-038 blocked the migration” and the “effect on RhoA activation compared to DMSO vehicle control” value [2] was “no significant effect”. The “∆Tm of PTP4A3 (destabilizing thermal shift)” value (PTP4A3 protein [3]) was “no significant thermal shift; also recorded: no effect” and the IC50 (PTP4A3 protein [4]) was over 100 µM.

N=C1C(=O)NC(=O)c2cc(-c3ccccc3)sc21 [JMS-053] showed an activity at 1 µM (PTP4A1; 1 µM, in-house assay, N=2, read-out: % Activity (Mean ± SD) PTP4A1) of 1%, an IC50 (PTP4A1) of 0.05 ± 0.014 µM and an activity at 1 µM (PTPN7 (HePTP)) of 97 ± 3%. The activity at 1 µM (LMPTP-B) was 99%, the activity at 1 µM (PTPRB (PTPβ)) was 95 ± 5% and the activity at 1 µM (DUSP13 (TMDP)) was 95 ± 1%. The activity at 1 µM (Lambda PP (Phage)) was 72 ± 3%, the “inhibition of p38α” value (p38α) was about 50% and the “TEER after VEGF, pretreatment” value ([5]; 2 h before VEGF 100 ng/mL then continuous exposure) was “normalized”. The “TEER after VEGF, post-treatment” value ([5]; 3 h after VEGF 100 ng/mL) was “normalized endothelial barrier function”, the “TEER after LPS, pretreatment” value ([6]; 5 µM, 24 h prior to LPS 0.5 EU/mL) was “prevented LPS-induced disruption of the endothelial barrier function” and the “TEER after LPS, post-treatment” value ([6]; treatment 3 h after LPS exposure) was “no observed mitigation”. The “LPS-mediated RhoA activation” value [7] was “blocked” and the “LPS-mediated reduction in Rac1 activation” value [8] was “blocked”.

For Nc1c[nH]c(=O)c2cc(-c3ccccc3)sc12 [thienopyridone, reference compound], the IC50 (A2780CP20) was 13.1 ± 6 µM, the IC50 (A2780) was 4.5 ± 0.6 µM and the IC50 (HEYA8-MDR) was over 50 µM. For the same compound, the IC50 (HEYA8) was 47 ± 4.9 µM, the IC50 (OVCAR4) was 15.5 ± 2.4 µM and the IC50 (SKOV3IP1) was 31.3 ± 8.5 µM. The IC50 (SKOV3TRIP2) was over 50 µM and the IC50 (SKOV3) was 28.8 ± 2.2 µM.
